Laboratory results taken from US10035766B2, “Compositions for preventing and/or treating lysosomal storage disorders” (Amicus Therapeutics, Inc., priority 2009, dated 2018).
Counter-ions that a name gives are not always drawn. Like-named read-outs stand apart in the source and are kept apart here. Blank lines part the entries; values can stand above or below the compound they belong to.

Tests used:
lysosomal GCase = molecular target: T1, lysosomal GCase (Homo sapiens, UniProt P04062); experiment: In situ lysosomal GCase inhibition and washout in fibroblasts from a normal subject (PFBFDβGlu substrate); format: cell-based; conditions: for in situ washout: after 16-24 hours at IC90, single exponential fit of activity recovery over 8 hours
T1 construct: fibroblasts established from a normal subject; endogenous in cells; host or cells: fibroblasts established from a normal subject
T1 sequence (P04062 40-536): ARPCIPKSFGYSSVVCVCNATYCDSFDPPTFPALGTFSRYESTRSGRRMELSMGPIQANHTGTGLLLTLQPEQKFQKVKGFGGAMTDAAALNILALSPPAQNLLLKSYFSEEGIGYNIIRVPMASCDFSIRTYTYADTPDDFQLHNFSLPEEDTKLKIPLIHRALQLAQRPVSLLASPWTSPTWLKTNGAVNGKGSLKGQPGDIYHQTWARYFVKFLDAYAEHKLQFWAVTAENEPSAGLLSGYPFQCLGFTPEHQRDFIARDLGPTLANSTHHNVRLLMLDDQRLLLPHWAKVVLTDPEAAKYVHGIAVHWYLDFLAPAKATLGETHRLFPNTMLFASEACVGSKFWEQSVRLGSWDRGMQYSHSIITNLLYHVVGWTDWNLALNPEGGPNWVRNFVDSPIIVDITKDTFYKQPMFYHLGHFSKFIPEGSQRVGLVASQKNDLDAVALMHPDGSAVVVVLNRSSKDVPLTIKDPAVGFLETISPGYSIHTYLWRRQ
Method: The effect of the novel compounds of the present invention on lysosomal GCase activity was assayed in situ using fibroblasts established from a normal subject. Cells seeded in 48-well plates were incubated with the indicated concentrations of compound for 16-24 hours. For the dose-response assays, cells were incubated with the in situ substrate 5-(pentafluorobenzoylamino)fluorescein di-β-D-glucopyranoside (PFBFDβGlu) for 1 hour and subsequently lysed to determine the extent of substrate hydrolysis in the presence of compound. […] Inhibition was determined as the ratio of activity in the presence of compound to that in the absence of compound. […] Cells were washed extensively and incubated in drug-free medium to allow net compound efflux from cells. Cells were then tested for lysosomal GCase activity at 2 hour intervals over a total period of 8 hours following compound removal. The increase in activity over time was fitted with a single exponential function to determine the compound's washout time.

[1] = Blood brain barrier penetration: plasma and brain levels after single oral dose; format: in vivo; conditions: mice, single 30 mg/kg (free base equivalent) p.o.
Method: For this purpose, 8-week old wild-type male mice (C57BL/6) were administered a single 30 mg/kg (free base equivalent) p.o. dose of reference or test compound by gavage (n=3 mice per time point). Dosing solutions were prepared in water. After dosing, mice were euthanized with CO2 at the following time points: 0-, 0.5-, 1-, and 4-hour post-dose. […] Similarly, brains were collected from each mouse. Plasma was derived by spinning whole blood at 2,700×g for 10 minutes at 4° C. followed by storage on dry ice. Whole brains were washed in cold PBS to remove contaminating blood, blotted dry, flash frozen on dry ice, and ultimately stored at −80° C. until analysis. To prepare brain samples for analysis, 50-100 mg of tissue was homogenized in […] of water/mg tissue. Samples were then clarified by centrifugation. Next, 25 μl of the brain homogenate supernatant or 25 μl of plasma were combined with 25 μl of acetonitrile:water (95/5). […] Samples were again clarified by centrifugation and 75 μl of the supernatant was combined with 75 μl of acetonitrile. Samples were then analyzed for compound levels by LC-MS/MS at PPD Inc. (3230 Deming Way, Middleton, Wis. 53562). In brief, a Thermo Betasil, Silica-100, 50×3 mm, 5μ column equilibrated with a mixture of mobile phase consisting of 5 mM ammonium formate and 0.05% formic acid in (A) 95:5 acetonitrile:water or (B) 70:20:10 methanol:water:acetonitrile was employed. Between 20 and 30 μl sample was injected for analysis. For calculating drug concentrations, raw data for plasma (ng/mL) and brain (ng/g) was converted to nM using the molecular weight of respective compounds and assuming 1 g of tissue is equivalent to 1 mL volume. Concentration as a function of time was plotted in GraphPad Prism version 4.02.

Rat pharmacokinetics = format: in vivo, rats; conditions: for AUC(0-t): AUC0-24 hr
Method: Pharmacokinetic (PK) data was obtained in rats to assess the bioavailability of test compound. In particular, the following PK parameters were calculated: bioavailability as measured by area under the Concentration/Time curve (AUC), fraction of dose available (% F; further defined below), clearance (CL), volume of distribution (Vd), and half-life (t½). […] Three rats were used per dosing group. Blood was collected over a 24-hr period. The time points for blood collection after intravenous administration were: 0, 2.5, 5, 10, 15, 30, 45 min, 1, 2, 4, 8, 12, and 24 hrs; time points for blood collection after p.o. administrations were: 0, 5, 15, 30, 45 min, 1, 2, 3, 4, 8, 12, and 24 hrs. Plasma samples were analyzed for compound levels by LC-MS/MS at PPD. Raw data was analyzed by non-compartmental analysis in Win-nonLin to calculate VD, % F, CL, and t1/2.

[2] = male, Sprague-Dawley, plasma, iv, 3 mg/kg, IV 3 mg/kg free base

inhibition of GCase activity (lysosomal GCase): inhibited GCase activity
levels detected in brain compared to IFG-tartrate [1]: higher levels
SMILES: CC[C@@H](F)[C@H]1CNC[C@@H](O)[C@@H]1O.Cl [(3R,4R,5S)-5-((R)-1-fluoropropyl)-piperidine-3,4-diol hydrochloride]
blood brain barrier crossing compared to IFG-tartrate [1]: crossed the blood brain barrier more readily as compared to IFG-tartrate

dose proportionality (Rat pharmacokinetics): dose proportionality
Vd (Rat pharmacokinetics; [2]): 9.77 ± 1.55 L/kg
clearance (Rat pharmacokinetics; [2]): 45.1 mL/min/kg
AUC(0-t) (Rat pharmacokinetics; [2]): 1420 ± 188 ng·h/mL
Cmax (Rat pharmacokinetics; male, Sprague-Dawley, plasma, iv, 3 mg/kg, IV 3 mg/kg free base, read-out: Cmax): 2330 ± 373 ng/mL
half-life (Rat pharmacokinetics; male, Sprague-Dawley, plasma, iv, 3 mg/kg, IV 3 mg/kg free base, read-out: t1/2 (converted)): 2.6 ± 0.64 h
AUC(0-t) (Rat pharmacokinetics; male, Sprague-Dawley, plasma, po, 10 mg/kg, PO 10 mg/kg free base): 7100 ± 606 ng·h/mL
half-life (Rat pharmacokinetics; male, Sprague-Dawley, plasma, po, 10 mg/kg, PO 10 mg/kg free base, read-out: t1/2 (converted)): 2.8 ± 0.5 h
AUC(0-t) (Rat pharmacokinetics; male, Sprague-Dawley, plasma, po, 30 mg/kg, PO 30 mg/kg free base): 21700 ± 1710 ng·h/mL
Cmax (Rat pharmacokinetics; male, Sprague-Dawley, plasma, po, 30 mg/kg, PO 30 mg/kg free base, read-out: Cmax): 6920 ± 451 ng/mL
half-life (Rat pharmacokinetics; male, Sprague-Dawley, plasma, po, 30 mg/kg, PO 30 mg/kg free base, read-out: t1/2 (converted)): 2.7 ± 0.12 h
AUC(0-t) (Rat pharmacokinetics; male, Sprague-Dawley, plasma, po, 100 mg/kg, PO 100 mg/kg free base): 59500 ± 1000 ng·h/mL
Cmax (Rat pharmacokinetics; male, Sprague-Dawley, plasma, po, 100 mg/kg, PO 100 mg/kg free base, read-out: Cmax): 19400 ± 3030 ng/mL
half-life (Rat pharmacokinetics; male, Sprague-Dawley, plasma, po, 100 mg/kg, PO 100 mg/kg free base, read-out: t1/2 (converted)): 2.5 ± 0.19 h
bioavailability (Rat pharmacokinetics; male, Sprague-Dawley, plasma, po, approximately): 50 to 100%
half-life (Rat pharmacokinetics; male, Sprague-Dawley, plasma, read-out: half-life): 1 to 4 h
inhibition of GCase activity (lysosomal GCase): inhibited GCase activity
levels detected in brain compared to IFG-tartrate [1]: higher levels
SMILES: CC(F)[C@H]1CNC[C@@H](O)[C@@H]1O (single isomer, unassigned)
pharmacokinetic profile (Rat pharmacokinetics): favorable pharmacokinetic profiles for drug development
volume of distribution (Rat pharmacokinetics): suggesting adequate penetration into peripheral tissues
in situ washout from the lysosomal compartment compared to IFG-tartrate (lysosomal GCase): considerably faster than reference compound IFG-tartrate
blood brain barrier crossing compared to IFG-tartrate [1]: crossed the blood brain barrier more readily as compared to IFG-tartrate

dose proportionality (Rat pharmacokinetics): dose proportionality
inhibition of GCase activity (lysosomal GCase): inhibited GCase activity
in situ washout (lysosomal GCase): 1.2 ± 0.13 h
levels detected in brain compared to IFG-tartrate [1]: higher levels
SMILES: O[C@@H]1[C@@H](Cc2ccccc2)CNC[C@H]1O [(3R,4R,5S)-5-benzyl-piperidine-3,4-diol]
pharmacokinetic profile (Rat pharmacokinetics): favorable pharmacokinetic profiles for drug development
volume of distribution (Rat pharmacokinetics): suggesting adequate penetration into peripheral tissues
in situ washout from the lysosomal compartment compared to IFG-tartrate (lysosomal GCase): considerably faster than reference compound IFG-tartrate
blood brain barrier crossing compared to IFG-tartrate [1]: crossed the blood brain barrier more readily as compared to IFG-tartrate

SMILES: O[C@H]1[C@H](O)CNC[C@@H]1C(F)F [Compound 6, (3R,4R,5S)-5-(Difluoromethyl)piperdine 3,4-diol Hydrochloride]
dose proportionality (Rat pharmacokinetics): dose proportionality
pharmacokinetic profile (Rat pharmacokinetics): favorable pharmacokinetic profiles for drug development
volume of distribution (Rat pharmacokinetics): suggesting adequate penetration into peripheral tissues
CL (Rat pharmacokinetics; IV 3 mg/kg free base): 25.92 mL/min/kg
Cmax (Rat pharmacokinetics; IV 3 mg/kg free base): 2323 ng/mL
VD (Rat pharmacokinetics; IV 3 mg/kg free base): 2.612 L/kg
% F (Rat pharmacokinetics; PO 10 mg/kg free base): 106%
Cmax (Rat pharmacokinetics; PO 10 mg/kg free base): 3363 ng/mL
t1/2 (Rat pharmacokinetics; PO 10 mg/kg free base): 2.58 h
% F (Rat pharmacokinetics; PO 30 mg/kg free base): 101%
Cmax (Rat pharmacokinetics; PO 30 mg/kg free base): 10037 ng/mL
t1/2 (Rat pharmacokinetics; PO 30 mg/kg free base): 2.75 h
% F (Rat pharmacokinetics; PO 100 mg/kg free base): 121%
Cmax (Rat pharmacokinetics; PO 100 mg/kg free base): 33200 ng/mL
t1/2 (Rat pharmacokinetics; PO 100 mg/kg free base): 2.41 h
in situ washout from the lysosomal compartment compared to IFG-tartrate (lysosomal GCase): considerably faster than reference compound IFG-tartrate
inhibition of GCase activity (lysosomal GCase): inhibited GCase activity
in situ washout (lysosomal GCase): 2.1 ± 0.30 h
blood brain barrier crossing compared to IFG-tartrate [1]: crossed the blood brain barrier more readily as compared to IFG-tartrate
levels detected in brain compared to IFG-tartrate [1]: higher levels
